Assay results reported in patent EP4670735A1, “PRODRUG NANOPARTICLE FOR TUMOR-TARGETED ULTRASOUND-[…] THERAPY” (Schleuning, Christian, priority 2024, dated 2025).

Key:
[1] = test system: human breast cancer (MCF-7) cells; experiment: Cytotoxicity (MTT) in the dark or upon exposure to ultrasound radiation; format: cell-based; details: 4 h incubation, then 44 h, concentrations correspond to the platinum complex
Description: (§1) 6 × 10^3 cells were seeded onto 96-well plates and allowed to adhere overnight. The cells were treated with increasing concentrations of the compound which was diluted in cell media to a total volume of 200 µL. The cells were incubated with the compound for 4 h and after this time the medium refreshed. The cells for the dark group were grown for an additional 44 h at 37 °C. The cells for the ultrasound group were exposed to ultrasound radiation (1.5 W/cm^2, 2 min) with an Intelect Mobile 2 Ultrasound Emitter (DJO Global). The cells for the ultrasound group were grown for an additional 44 h at 37 °C. After this incubation time, the culture medium was substituted with PBS buffer containing 3-(4,5-dimethylthiazol-2-yl)-2,5-diphenyltetrazolium bromide (MTT) with a final concentration of 12 µM. The cells were incubated for 2 h at 37 °C and 10 % CO2 After this time, the DPBS-MTT mixture was removed and the wells filled with 200 µL DMSO. Using a 620 nm reference wavelength, the absorption of the formazan was measured at 550 nm with an Infinite M Nano plus Microplate reader (Tecan).
(§2) In contrast, the nanoparticles induced a cytotoxic effect upon exposure to ultrasound radiation. Table 1 reflects the respective data, which are also visualized in Fig. 3. Table 1: Cytotoxicity (IC50 in µM) of oxaliplatin, NP-Pt-1 and NP-Pt-2 in the dark or upon exposure to ultrasound radiation in mouse colon carcinoma (CT-26) and human breast cancer (MCF-7) cells. The mentioned concentrations correspond to the platinum complex.

[2] = test system: mouse colon carcinoma (CT-26) cells; experiment: as above; format: cell-based; details: 4 h incubation, then 44 h, concentrations correspond to the platinum complex
Description: as §1, §2

Structure (SMILES): O=C1[O][Pt]2([NH][C@@H]3CCCC[C@H]3[NH]2)[O]C1=O [Oxaliplatin]
- IC50 ([1]; MCF-7, dark, 2880 min): 24.5 ± 4.6 µM
- IC50 ([1]; MCF-7, ultrasound (1.5 W/cm^2, 2 min)): 22.4 ± 4.8 µM
- IC50 ([2]; CT-26, dark, 2880 min): 20.4 ± 3.1 µM
- IC50 ([2]; CT-26, ultrasound (1.5 W/cm^2, 2 min)): 19.3 ± 3.4 µM
